Data from ChEMBL document CHEMBL5365465, “Oxetanes in Drug Discovery Campaigns” (J Med Chem, 2023).
Each block holds one compound with its values, some of them ahead of it.

Legend:
[1] = biological target: T1, Leucine-rich repeat serine/threonine-protein kinase 2 (Homo sapiens, UniProt Q5S007); test: Inhibition of LRRK2 in human PBMCs assessed as reduction in […] phosphorylation
[2] = biological target: Histone-lysine N-methyltransferase EZH2 (Homo sapiens, UniProt Q15910); test: Inhibition of EZH2 (unknown origin)
[3] = biological target: Platelet-derived growth factor receptor alpha (Homo sapiens, UniProt P16234, D842V); test: Inhibition of PDGFRalpha D842V mutant (unknown origin)
[4] = biological target: Mast/stem cell growth factor receptor Kit (Homo sapiens, UniProt P10721, D816V); test: Inhibition of KIT D816V mutant (unknown origin)
[5] = biological target: T1, Leucine-rich repeat serine/threonine-protein kinase 2; test: Inhibition of LRRK2 (unknown origin)
Protease = Protease (Human immunodeficiency virus 1, UniProt Q9YQ12); test: Inhibition of HIV protease
[6] = Metabolic stability in human liver microsomes assessed as intrinsic clearance; format: ADME, Microsome
[7] = Aqueous solubility of compound at pH 2; format: physicochemical

T1 sequence (Q5S007 whole entry): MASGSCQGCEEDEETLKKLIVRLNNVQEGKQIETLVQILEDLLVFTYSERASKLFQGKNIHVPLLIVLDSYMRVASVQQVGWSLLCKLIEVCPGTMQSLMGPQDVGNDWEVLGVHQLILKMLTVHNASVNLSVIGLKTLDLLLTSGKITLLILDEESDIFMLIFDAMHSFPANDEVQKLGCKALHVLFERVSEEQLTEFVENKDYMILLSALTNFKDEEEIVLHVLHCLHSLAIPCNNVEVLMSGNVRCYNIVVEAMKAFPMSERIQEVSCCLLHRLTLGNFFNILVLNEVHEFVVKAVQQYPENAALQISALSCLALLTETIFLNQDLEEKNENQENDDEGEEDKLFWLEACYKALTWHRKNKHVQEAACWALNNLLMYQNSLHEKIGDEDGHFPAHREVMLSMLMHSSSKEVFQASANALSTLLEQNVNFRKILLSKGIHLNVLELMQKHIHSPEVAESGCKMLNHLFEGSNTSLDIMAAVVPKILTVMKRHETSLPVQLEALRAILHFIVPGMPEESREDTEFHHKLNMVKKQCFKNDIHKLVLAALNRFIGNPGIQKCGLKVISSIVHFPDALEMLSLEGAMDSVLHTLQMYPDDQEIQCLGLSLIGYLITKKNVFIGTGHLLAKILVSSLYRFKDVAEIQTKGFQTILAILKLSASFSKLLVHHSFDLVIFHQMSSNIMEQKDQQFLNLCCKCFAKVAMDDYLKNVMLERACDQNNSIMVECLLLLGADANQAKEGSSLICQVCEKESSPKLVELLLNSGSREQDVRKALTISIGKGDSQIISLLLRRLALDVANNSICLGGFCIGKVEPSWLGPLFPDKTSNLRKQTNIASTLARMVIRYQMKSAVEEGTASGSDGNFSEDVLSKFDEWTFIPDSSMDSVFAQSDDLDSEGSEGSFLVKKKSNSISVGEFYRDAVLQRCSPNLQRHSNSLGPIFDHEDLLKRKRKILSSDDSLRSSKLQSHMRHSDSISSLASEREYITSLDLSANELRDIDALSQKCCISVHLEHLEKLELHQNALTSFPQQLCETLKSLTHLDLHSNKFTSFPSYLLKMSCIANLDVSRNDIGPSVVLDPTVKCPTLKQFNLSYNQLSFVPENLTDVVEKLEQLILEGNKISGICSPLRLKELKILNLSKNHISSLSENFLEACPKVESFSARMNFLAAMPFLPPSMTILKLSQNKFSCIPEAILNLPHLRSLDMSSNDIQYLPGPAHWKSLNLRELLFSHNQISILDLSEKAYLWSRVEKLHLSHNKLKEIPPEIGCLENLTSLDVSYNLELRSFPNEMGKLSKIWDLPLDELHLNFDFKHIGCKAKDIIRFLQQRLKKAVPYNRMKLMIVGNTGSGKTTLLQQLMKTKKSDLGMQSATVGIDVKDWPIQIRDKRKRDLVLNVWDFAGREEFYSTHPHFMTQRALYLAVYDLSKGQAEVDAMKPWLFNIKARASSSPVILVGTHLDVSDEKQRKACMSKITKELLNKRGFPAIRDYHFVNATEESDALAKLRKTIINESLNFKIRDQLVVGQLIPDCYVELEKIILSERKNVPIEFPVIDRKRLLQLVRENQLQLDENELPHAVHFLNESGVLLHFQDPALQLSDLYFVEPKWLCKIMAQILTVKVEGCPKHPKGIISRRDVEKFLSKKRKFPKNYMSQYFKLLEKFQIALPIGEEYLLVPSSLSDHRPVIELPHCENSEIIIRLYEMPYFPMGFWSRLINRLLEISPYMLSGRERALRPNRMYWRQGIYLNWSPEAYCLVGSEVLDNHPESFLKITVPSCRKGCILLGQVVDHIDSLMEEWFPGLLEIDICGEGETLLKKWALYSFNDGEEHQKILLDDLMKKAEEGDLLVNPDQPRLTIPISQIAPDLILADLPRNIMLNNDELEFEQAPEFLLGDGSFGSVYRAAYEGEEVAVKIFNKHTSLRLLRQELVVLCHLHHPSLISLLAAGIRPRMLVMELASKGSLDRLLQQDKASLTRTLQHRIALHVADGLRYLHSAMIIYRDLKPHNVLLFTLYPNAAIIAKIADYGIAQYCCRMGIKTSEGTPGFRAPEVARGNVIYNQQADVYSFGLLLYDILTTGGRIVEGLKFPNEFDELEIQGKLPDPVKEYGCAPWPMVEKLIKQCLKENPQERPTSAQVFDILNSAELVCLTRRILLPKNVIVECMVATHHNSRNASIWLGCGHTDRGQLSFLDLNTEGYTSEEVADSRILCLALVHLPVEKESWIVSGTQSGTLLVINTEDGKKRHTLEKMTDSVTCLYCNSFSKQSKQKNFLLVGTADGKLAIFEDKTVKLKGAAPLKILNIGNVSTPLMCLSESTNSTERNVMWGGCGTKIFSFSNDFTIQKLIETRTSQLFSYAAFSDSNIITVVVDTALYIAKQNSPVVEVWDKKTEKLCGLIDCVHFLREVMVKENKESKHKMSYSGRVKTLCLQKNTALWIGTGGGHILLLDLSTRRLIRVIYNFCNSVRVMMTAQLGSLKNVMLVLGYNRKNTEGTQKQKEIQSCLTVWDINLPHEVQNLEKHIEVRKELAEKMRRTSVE
Protease, sequence (Q9YQ12 whole entry): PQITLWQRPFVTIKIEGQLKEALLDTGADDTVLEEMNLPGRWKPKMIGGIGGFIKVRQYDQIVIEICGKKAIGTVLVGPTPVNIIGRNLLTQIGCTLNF
Histone-lysine N-methyltransferase EZH2, sequence (Q15910 whole entry): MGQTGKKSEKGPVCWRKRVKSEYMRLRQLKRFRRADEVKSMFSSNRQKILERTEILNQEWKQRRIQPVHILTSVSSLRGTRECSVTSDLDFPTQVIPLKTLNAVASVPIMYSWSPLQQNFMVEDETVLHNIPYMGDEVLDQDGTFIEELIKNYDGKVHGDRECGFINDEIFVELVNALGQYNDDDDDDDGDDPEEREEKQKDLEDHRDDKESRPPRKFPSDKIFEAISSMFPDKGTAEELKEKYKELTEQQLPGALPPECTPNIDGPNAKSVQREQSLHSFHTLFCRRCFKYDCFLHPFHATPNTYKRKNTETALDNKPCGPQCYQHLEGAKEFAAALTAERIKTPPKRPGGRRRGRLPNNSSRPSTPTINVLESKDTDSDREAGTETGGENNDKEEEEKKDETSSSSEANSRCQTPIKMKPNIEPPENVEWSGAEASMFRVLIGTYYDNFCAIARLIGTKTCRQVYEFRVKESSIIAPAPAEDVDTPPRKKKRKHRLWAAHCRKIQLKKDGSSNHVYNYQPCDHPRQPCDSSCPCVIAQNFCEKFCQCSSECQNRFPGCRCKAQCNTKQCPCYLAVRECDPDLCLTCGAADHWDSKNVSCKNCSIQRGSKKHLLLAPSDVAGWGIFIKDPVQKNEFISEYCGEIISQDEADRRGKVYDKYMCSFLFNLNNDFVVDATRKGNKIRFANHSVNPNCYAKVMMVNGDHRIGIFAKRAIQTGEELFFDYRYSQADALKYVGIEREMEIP
Platelet-derived growth factor receptor alpha, sequence (P16234 24-1089 D842V limits assumed): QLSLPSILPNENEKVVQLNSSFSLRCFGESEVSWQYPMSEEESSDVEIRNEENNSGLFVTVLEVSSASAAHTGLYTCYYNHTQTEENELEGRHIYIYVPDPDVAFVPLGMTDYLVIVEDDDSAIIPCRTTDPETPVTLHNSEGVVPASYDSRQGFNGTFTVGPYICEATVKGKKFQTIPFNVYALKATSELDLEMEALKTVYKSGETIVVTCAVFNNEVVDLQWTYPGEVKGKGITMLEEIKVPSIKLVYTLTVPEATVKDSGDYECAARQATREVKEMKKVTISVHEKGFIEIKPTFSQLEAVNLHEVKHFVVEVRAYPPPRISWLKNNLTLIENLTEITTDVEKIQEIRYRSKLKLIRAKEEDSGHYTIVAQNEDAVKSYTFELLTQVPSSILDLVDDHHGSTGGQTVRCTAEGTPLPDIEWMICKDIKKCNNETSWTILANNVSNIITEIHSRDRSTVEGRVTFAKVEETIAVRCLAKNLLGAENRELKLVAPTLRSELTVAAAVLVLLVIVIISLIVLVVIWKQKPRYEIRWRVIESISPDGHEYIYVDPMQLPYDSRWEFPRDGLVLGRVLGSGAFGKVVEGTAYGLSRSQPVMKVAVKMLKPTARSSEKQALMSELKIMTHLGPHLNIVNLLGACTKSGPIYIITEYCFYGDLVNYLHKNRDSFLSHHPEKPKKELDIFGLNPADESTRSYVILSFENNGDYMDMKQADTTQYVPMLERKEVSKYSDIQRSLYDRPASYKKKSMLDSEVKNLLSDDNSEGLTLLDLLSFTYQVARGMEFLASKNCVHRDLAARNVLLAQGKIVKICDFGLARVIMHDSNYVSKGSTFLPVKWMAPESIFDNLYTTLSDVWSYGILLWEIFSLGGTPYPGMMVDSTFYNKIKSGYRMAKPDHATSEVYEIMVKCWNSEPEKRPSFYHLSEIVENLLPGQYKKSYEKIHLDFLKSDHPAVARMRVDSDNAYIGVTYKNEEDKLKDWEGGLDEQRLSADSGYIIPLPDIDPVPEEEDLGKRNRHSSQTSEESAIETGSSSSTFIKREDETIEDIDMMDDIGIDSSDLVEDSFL

SMILES: Cc1ccc2ccc(N[C@H]3CC[C@H](CNc4ncc(C(F)(F)C(=O)NC5COC5)cn4)CC3)nc2c1Cl
IC50 [2]: < 10 nM

SMILES: C[C@](N)(c1ccc(F)cc1)c1cnc(N2CCN(c3ncnn4cc(-c5cnn(CC6COC6)c5)cc34)CC2)nc1
IC50 [3]: < 4.5 nM
IC50 [4]: < 4.5 nM

SMILES: CC(C)(C)Cn1cc(Nc2ncc3c(Cl)c(N4CCN(C5(C)COC5)CC4)ccc3n2)cn1
IC50 [5]: 9.7 nM

SMILES: COC(=O)N[C@H](C(=O)N[C@@H](Cc1ccc(C#Cc2ccc(N3CC4CCC(C3)N4C3COC3)nc2)cc1)[C@@H](O)CN(Cc1c(F)cc(-c2ccn(C(F)F)n2)cc1F)NC(=O)[C@@H](NC(=O)OC)C(C)(C)C(F)(F)F)C(C)(C)C(F)(F)F
EC50 (Protease): 4.8 nM

Second part, the compound after the results:

IC50 [1]: < 10 nM
SMILES: O=C1NCCCOc2ccc3[nH]nc(c3c2)-c2cc(cc(N3CCC4(COC4)C3)c2)CO1

CLH [6]: 0.31 L/h/kg
SMILES: c1cn2cc(-c3ccc4cn[nH]c4c3)nc(Nc3ccc(N4CCOCC4)cc3)c2n1 [ENTOSPLETINIB]

CLH [6]: < 0.11 L/h/kg
solubility [7]: > 100 µM
SMILES: Nc1cncc(-c2cn3ccnc3c(Nc3ccc(N4CCN(C5COC5)CC4)cc3)n2)n1 [LANRAPLENIB]
